Measured values from patent publication US9611267B2, “Substituted tricyclic compounds as FGFR inhibitors” (Incyte Corporation, priority 2012, dated 2017).

Assays:
Assay type in all cases: biochemical
FGFR2 = FGFR2 (Homo sapiens (Human), UniProt P21802); test: FGFR enzymatic assay (FRET peptide phosphorylation), FGFR2; conditions: FGFR2 enzyme 0.01 nM, ATP 100 μM
Outline: (§1)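 Recombinant kinase was pre-incubated 5–10 min with serially diluted inhibitor in HEPES buffer (10 mM MgCl2, 5 mM DTT, pH 7.5; buffer described for FGFR3). Peptide phosphorylation ran 1 h at 25 °C and was detected by FRET after ~1 h equilibration. IC50 values come from variable-slope sigmoidal fits.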

FGFR3 = FGFR3 (Homo sapiens (Human), UniProt P22607); test: FGFR enzymatic assay (FRET peptide phosphorylation), FGFR3; conditions: FGFR3 enzyme (Millipore), ATP 140 μM
Outline: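 FRET assay of peptide phosphorylation by FGFR3 in HEPES pH 7.5 buffer with MgCl2, EGTA, Tween-20 and DTT. Enzyme was pre-incubated 5-10 min with compound, and the reaction ran 1 hr at 25° C. IC50 came from a variable-slope sigmoidal fit.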

FGFR1 = FGFR1 (Homo sapiens (Human), UniProt P11362); test: FGFR enzymatic assay (FRET peptide phosphorylation), FGFR1; conditions: FGFR1 enzyme 0.02 nM, ATP 210 μM
Outline: as §1

Measured: IC50

Sequence of FGFR3 (P22607 23-806): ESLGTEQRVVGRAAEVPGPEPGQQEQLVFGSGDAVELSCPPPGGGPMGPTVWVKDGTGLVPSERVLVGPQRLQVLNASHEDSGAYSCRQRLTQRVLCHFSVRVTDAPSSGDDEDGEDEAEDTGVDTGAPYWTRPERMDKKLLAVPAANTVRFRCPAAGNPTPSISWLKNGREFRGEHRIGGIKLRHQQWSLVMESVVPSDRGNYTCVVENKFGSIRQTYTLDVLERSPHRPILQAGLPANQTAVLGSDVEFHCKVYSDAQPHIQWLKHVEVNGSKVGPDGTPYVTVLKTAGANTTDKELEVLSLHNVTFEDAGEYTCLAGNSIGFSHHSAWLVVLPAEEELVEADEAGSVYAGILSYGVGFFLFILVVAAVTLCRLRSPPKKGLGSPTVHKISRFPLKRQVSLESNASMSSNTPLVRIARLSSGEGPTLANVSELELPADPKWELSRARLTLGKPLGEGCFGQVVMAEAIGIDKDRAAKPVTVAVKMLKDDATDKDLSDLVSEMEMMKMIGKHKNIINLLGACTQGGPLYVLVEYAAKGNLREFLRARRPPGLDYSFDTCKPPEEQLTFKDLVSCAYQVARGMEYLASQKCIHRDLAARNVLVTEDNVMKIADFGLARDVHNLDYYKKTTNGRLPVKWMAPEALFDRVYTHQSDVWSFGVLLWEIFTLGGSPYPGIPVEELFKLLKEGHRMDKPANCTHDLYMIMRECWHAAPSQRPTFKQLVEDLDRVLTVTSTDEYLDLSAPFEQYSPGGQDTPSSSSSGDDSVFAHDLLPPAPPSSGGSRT
Sequence of FGFR2 (P21802 22-821): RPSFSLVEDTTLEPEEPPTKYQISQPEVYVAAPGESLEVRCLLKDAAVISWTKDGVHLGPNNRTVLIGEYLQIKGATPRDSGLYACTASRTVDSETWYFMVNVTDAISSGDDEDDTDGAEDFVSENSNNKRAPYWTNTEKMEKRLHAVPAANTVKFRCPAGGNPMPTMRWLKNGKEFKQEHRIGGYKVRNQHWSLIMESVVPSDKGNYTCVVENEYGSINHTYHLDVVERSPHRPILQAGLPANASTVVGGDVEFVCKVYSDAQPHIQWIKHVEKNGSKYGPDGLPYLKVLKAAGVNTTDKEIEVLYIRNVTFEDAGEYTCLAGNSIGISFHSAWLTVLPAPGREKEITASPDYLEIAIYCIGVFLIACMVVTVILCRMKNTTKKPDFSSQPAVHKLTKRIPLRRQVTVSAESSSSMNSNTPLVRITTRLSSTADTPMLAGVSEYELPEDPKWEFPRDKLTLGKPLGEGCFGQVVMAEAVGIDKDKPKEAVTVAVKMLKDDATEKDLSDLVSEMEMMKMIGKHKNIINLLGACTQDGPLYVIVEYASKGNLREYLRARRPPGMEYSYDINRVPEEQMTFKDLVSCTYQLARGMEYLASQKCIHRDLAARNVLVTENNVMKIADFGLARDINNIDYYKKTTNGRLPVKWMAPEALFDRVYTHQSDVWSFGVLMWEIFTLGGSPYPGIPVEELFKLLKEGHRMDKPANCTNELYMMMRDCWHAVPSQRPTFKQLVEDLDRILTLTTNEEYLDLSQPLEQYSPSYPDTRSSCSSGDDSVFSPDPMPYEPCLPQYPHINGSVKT
Sequence of FGFR1 (P11362 22-822): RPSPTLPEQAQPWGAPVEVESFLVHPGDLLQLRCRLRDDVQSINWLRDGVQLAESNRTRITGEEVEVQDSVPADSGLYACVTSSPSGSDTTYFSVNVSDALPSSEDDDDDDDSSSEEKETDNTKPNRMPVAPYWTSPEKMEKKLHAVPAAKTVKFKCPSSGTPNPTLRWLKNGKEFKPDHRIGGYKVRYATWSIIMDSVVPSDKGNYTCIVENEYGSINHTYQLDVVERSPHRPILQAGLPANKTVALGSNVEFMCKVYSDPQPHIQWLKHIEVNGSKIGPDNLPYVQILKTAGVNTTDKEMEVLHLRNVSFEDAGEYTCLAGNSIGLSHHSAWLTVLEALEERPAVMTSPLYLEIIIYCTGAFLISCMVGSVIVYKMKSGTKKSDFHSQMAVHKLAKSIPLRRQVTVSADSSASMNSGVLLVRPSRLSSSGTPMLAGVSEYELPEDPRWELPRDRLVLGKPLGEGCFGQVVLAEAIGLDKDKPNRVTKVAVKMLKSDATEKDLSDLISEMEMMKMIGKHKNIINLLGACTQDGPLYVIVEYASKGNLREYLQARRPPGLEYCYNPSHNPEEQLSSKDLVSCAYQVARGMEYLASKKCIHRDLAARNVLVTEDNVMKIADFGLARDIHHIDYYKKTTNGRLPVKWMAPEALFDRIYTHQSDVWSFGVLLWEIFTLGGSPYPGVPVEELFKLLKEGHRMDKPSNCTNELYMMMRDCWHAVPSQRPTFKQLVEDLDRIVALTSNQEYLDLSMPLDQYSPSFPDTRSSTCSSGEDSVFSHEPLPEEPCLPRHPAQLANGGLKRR

CCNC(=O)c1cccc(N2C(=O)N(c3c(F)c(OC)cc(OC)c3F)Cc3cnc4[nH]ncc4c32)c1F [Example 201, 3-[3-(2,6-difluoro-3,5-dimethoxyphenyl)-2-oxo-2,3,4,7-tetrahydro-1H-pyrazolo[4′,3′:5,6]pyrido[4,3-d]pyrimidin-1-yl]-N-ethyl-2-fluorobenzamide]
< 100 nM: all assays above

COc1cc(CN2C(=O)N(c3c(F)c(OC)cc(OC)c3F)Cc3cnc4[nH]c(CN5CCOCC5)cc4c32)ccn1 [Example 202, 3-(2,6-difluoro-3,5-dimethoxyphenyl)-1-[(2-methoxypyridin-4-yl)methyl]-8-(morpholin-4-ylmethyl)-1,3,4,7-tetrahydro-2H-pyrrolo[3′,2′:5,6]pyrido[4,3-d]pyrimidin-2-one]
< 100 nM: all assays above

COc1cc(OC)c(F)c(N2Cc3cnc4[nH]c(CN5CCOCC5)cc4c3N(c3cnn(C)c3)C2=O)c1F [Example 203, 3-(2,6-difluoro-3,5-dimethoxyphenyl)-1-(1-methyl-1H-pyrazol-4-yl)-8-(morpholin-4-ylmethyl)-1,3,4,7-tetrahydro-2H-pyrrolo[3′,2′:5,6]pyrido[4,3-d]pyrimidin-2-one]
< 100 nM: all assays above

COc1cc(OC)c(F)c(N2Cc3cnc4[nH]c(CN5CCN(C)CC5)cc4c3N(c3cnn(C)c3)C2=O)c1F [Example 204, 3-(2,6-difluoro-3,5-dimethoxyphenyl)-8-[(4-methylpiperazin-1-yl)methyl]-1-(1-methyl-1H-pyrazol-4-yl)-1,3,4,7-tetrahydro-2H-pyrrolo[3′,2′:5,6]pyrido[4,3-d]pyrimidin-2-one]
< 100 nM: all assays above

CCN1CCN(Cc2cc3c4c(cnc3[nH]2)CN(c2c(F)c(OC)cc(OC)c2F)C(=O)N4c2cnn(C)c2)CC1 [Example 205, 3-(2,6-difluoro-3,5-dimethoxyphenyl)-8-[(4-ethylpiperazin-1-yl)methyl]-1-(1-methyl-1H-pyrazol-4-yl)-1,3,4,7-tetrahydro-2H-pyrrolo[3′,2′:5,6]pyrido[4,3-d]pyrimidin-2-one]
< 100 nM: all assays above

COc1cc(OC)c(F)c(N2Cc3cnc4[nH]c(CN5CC(O)C5)cc4c3C(C)(C)C2=O)c1F [Example 206, 7-(2,6-difluoro-3,5-dimethoxyphenyl)-2-[(3-hydroxyazetidin-1-yl)methyl]-9,9-dimethyl-3,6,7,9-tetrahydro-8H-pyrrolo[2,3-c]-2,7-naphthyridin-8-one]
< 100 nM: all assays above

COc1cc(OC)c(F)c(N2Cc3cnc4[nH]c(CN5CC(F)C5)cc4c3C(C)(C)C2=O)c1F [Example 207, 7-(2,6-difluoro-3,5-dimethoxyphenyl)-2-[(3-fluoroazetidin-1-yl)methyl]-9,9-dimethyl-3,6,7,9-tetrahydro-8H-pyrrolo[2,3-c]-2,7-naphthyridin-8-one]
< 100 nM: all assays above

COc1cc(OC)c(F)c(N2Cc3cnc4[nH]c(CN5CC(C#N)C5)cc4c3N(C)C2=O)c1F [Example 208, 1-{[3-(2,6-difluoro-3,5-dimethoxyphenyl)-1-methyl-2-oxo-2,3,4,7-tetrahydro-1H-pyrrolo[3′,2′:5,6]pyrido[4,3-d]pyrimidin-8-yl]methyl}azetidine-3-carbonitrile]
< 100 nM: all assays above

COc1cc(OC)c(F)c(N2Cc3cnc4[nH]c(CN5CC[C@@H](C#N)C5)cc4c3N(C)C2=O)c1F [Example 209, (3R)-1-{[3-(2,6-difluoro-3,5-dimethoxyphenyl)-1-methyl-2-oxo-2,3,4,7-tetrahydro-1H-pyrrolo[3′,2′:5,6]pyrido[4,3-d]pyrimidin-8-yl]methyl}pyrrolidine-3-carbonitrile]
< 100 nM: all assays above

COc1cc(OC)c(F)c(N2Cc3cnc4[nH]c(CCN5CC(F)C5)cc4c3N(CCO)C2=O)c1F [Example 210, 3-(2,6-difluoro-3,5-dimethoxyphenyl)-8-[2-(3-fluoroazetidin-1-yl)ethyl]-1-(2-hydroxyethyl)-1,3,4,7-tetrahydro-2H-pyrrolo[3′,2′:5,6]pyrido[4,3-d]pyrimidin-2-one]
< 100 nM: all assays above

COc1cc(OC)c(F)c(N2Cc3cnc4[nH]c(CN5CCOCC5)cc4c3N(c3cccc(F)c3F)C2=O)c1F [Example 211, 3-(2,6-difluoro-3,5-dimethoxyphenyl)-1-(2,3-difluorophenyl)-8-(morpholin-4-ylmethyl)-1,3,4,7-tetrahydro-2H-pyrrolo[3′,2′:5,6]pyrido[4,3-d]pyrimidin-2-one]
< 100 nM: all assays above

COc1cc(OC)c(F)c(N2Cc3cnc4[nH]c(CN5CCOCC5)cc4c3N(c3cccc(F)c3)C2=O)c1F [Example 212, 3-(2,6-difluoro-3,5-dimethoxyphenyl)-1-(3-fluorophenyl)-8-(morpholin-4-ylmethyl)-1,3,4,7-tetrahydro-2H-pyrrolo[3′,2′:5,6]pyrido[4,3-d]pyrimidin-2-one]
< 100 nM: all assays above

COc1cc(OC)c(F)c(N2Cc3cnc4[nH]c(CN5CCN(C)CC5)cc4c3N(c3cccc(F)c3)C2=O)c1F [Example 213, 3-(2,6-difluoro-3,5-dimethoxyphenyl)-1-(3-fluorophenyl)-8-[(4-methylpiperazin-1-yl)methyl]-1,3,4,7-tetrahydro-2H-pyrrolo[3′,2′:5,6]pyrido[4,3-d]pyrimidin-2-one]
< 100 nM: all assays above

COc1cc(OC)c(F)c(N2Cc3cnc4[nH]nc(-c5cnn(C)c5)c4c3N(C)C2=O)c1F [Example 215, 3-(2,6-difluoro-3,5-dimethoxyphenyl)-1-methyl-9-(1-methyl-1H-pyrazol-4-yl)-1,3,4,7-tetrahydro-2H-pyrazolo[4′,3′:5,6]pyrido[4,3-d]pyrimidin-2-one]
< 100 nM: all assays above

COc1cc(OC)c(F)c(N2Cc3cnc4[nH]ncc4c3N(Cc3cccc(F)n3)C2=O)c1F [Example 216, 3-(2,6-difluoro-3,5-dimethoxyphenyl)-1-[(6-fluoropyridin-2-yl)methyl]-1,3,4,7-tetrahydro-2H-pyrazolo[4′,3′:5,6]pyrido[4,3-d]pyrimidin-2-one]
< 100 nM: all assays above

COc1cc(OC)c(F)c(N2Cc3cnc4[nH]ncc4c3N(Cc3cccc(C)n3)C2=O)c1F [Example 217, 3-(2,6-difluoro-3,5-dimethoxyphenyl)-1-[(6-methylpyridin-2-yl)methyl]-1,3,4,7-tetrahydro-2H-pyrazolo[4′,3′:5,6]pyrido[4,3-d]pyrimidin-2-one]
< 100 nM: all assays above

COc1cc(OC)c(F)c(N2Cc3cnc4[nH]ncc4c3N(c3ncccc3F)C2=O)c1F [Example 218, 3-(2,6-Difluoro-3,5-dimethoxyphenyl)-1-(3-fluoropyridin-2-yl)-1,3,4,7-tetrahydro-2H-pyrazolo[4′,3′:5,6]pyrido[4,3-d]pyrimidin-2-one]
< 100 nM: all assays above
